From patent publication US8133913B2, “Substituted indeno [1,2-b]indole derivatives as novel inhibitors of protein kinase CK2 and their use as tumor therapeutic agents, cytostatics and diagnostic aids” (Heinrich-Heine Universitat Dusseldof, priority 2006, dated 2012)
Where two headings read alike, the source gives them in different places.

Tests used:
Assay in all cases: Radiometric protein kinase assay (33PanQinase Activity Assay)
Assay type in all cases: biochemical
AKT1 = target: T1, AKT1 (Homo sapiens, UniProt P31749)
T1 construct: made in house; host or cells: Sf9 insect cells, baculovirus
T1 sequence (P31749 whole entry): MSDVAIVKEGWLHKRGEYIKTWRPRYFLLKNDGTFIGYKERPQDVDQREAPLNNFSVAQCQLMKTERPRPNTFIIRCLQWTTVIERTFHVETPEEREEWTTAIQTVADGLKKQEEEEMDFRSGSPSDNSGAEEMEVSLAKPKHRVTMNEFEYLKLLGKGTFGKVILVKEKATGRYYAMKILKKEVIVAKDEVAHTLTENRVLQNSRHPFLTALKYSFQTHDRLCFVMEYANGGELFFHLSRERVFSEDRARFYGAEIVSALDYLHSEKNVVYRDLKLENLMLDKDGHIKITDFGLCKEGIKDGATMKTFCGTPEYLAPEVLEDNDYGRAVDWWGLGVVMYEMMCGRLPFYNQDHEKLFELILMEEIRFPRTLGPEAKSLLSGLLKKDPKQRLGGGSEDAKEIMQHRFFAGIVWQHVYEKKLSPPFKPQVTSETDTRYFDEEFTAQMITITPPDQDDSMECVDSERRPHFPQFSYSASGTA
Description: (§1) AKTI1, ARK5, Aurora-A, Aurora-B, B-RAF-VE, CDK2/CycA, CDK4/CycD1, CK2-alpha1 (catalytic subunit of CK2), EGF-R, EPHB4, ERBB2, FAK, IGF1-R, SRC, VEGF-R2, VEGF-R3, FLT3, INS-R, MET, PDGFR-beta, PLK1, SAK, TIE2, COT.
(§2) All the protein kinases were expressed in Sf9 insect cells as human recombinant GST fusion proteins or His-tagged proteins by the baculovirus expression system. Kinases were purified by affinity chromatography either by GSH-agarose (Sigma) or Ni—NTH-agarose (Qiagen). The purity of the kinases was tested by SDS-PAGE/silver staining, and the identity of the kinases was verified by Western blot analysis with specific antibodies or mass spectroscopy.
(§3) A radiometric protein kinase assay (33PanQinase® Activity Assay) was used to measure the kinase activity for the 24 protein kinases. The kinase assays were carried out in 96-well FlashPlates™ from Perkin Elmer/NEN (Boston, Mass., USA) in a reaction volume of 50 μl. The reaction mixture was pipetted in 4 steps in the following sequence: • 20 μl of assay buffer • 5 μl of ATP solution (in H2O) • 5 μl of test compound (in 10% DMSO) • 10 μl of substrate/10 μl of enzyme solution (premixed)
(§4) The assays for all the enzymes contained 60 mM HEPES-NaOH, pH 7.5, 3 mM MgCl2, 3 mM MnCl2, 3 μM Na orthovanadate, 1.2 mM DTT, 50 μg/ml PEG20000, 1 μM [γ-^33P]-ATP (about 5×10^5 cpm per well).
(§5) The reaction mixture was incubated at 30° C. for 80 minutes. The reaction was stopped with 50 μl of 2% (v/v) H3PO4. The plates were aspirated and washed twice with 200 μl of 0.9% (w/v) NaCl. The incorporation of ^33Pi was determined using a microtiter plates scintillation counter (Microbeta Trilux, Wallac).

CDK4/CycD1 = target: T2, CDK4/CycD1 (Homo sapiens, UniProt P11802)
T2 construct: made in house; host or cells: Sf9 insect cells, baculovirus
T2 sequence (P11802 whole entry): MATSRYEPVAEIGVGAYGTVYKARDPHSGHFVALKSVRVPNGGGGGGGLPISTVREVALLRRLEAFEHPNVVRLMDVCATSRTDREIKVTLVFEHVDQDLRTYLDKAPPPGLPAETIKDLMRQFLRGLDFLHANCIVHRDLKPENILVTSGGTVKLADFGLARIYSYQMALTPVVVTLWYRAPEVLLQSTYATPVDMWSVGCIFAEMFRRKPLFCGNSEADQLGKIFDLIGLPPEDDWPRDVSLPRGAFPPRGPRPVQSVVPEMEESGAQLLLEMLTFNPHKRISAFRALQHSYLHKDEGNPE
T2 sequence (P24385 whole entry partner): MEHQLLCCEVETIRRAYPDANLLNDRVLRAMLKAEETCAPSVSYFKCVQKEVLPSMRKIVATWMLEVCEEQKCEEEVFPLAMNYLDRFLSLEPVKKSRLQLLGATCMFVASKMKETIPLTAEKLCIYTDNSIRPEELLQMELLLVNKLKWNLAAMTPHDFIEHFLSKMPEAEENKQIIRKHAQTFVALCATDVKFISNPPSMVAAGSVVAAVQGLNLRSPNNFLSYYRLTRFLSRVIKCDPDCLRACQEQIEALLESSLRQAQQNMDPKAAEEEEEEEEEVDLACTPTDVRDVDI
Description: as §1, §2, §3, §4, §5

ERBB2 = target: T3, ERBB2 (Homo sapiens, UniProt P04626)
T3 construct: made in house; host or cells: Sf9 insect cells, baculovirus
T3 sequence (P04626 23-1255): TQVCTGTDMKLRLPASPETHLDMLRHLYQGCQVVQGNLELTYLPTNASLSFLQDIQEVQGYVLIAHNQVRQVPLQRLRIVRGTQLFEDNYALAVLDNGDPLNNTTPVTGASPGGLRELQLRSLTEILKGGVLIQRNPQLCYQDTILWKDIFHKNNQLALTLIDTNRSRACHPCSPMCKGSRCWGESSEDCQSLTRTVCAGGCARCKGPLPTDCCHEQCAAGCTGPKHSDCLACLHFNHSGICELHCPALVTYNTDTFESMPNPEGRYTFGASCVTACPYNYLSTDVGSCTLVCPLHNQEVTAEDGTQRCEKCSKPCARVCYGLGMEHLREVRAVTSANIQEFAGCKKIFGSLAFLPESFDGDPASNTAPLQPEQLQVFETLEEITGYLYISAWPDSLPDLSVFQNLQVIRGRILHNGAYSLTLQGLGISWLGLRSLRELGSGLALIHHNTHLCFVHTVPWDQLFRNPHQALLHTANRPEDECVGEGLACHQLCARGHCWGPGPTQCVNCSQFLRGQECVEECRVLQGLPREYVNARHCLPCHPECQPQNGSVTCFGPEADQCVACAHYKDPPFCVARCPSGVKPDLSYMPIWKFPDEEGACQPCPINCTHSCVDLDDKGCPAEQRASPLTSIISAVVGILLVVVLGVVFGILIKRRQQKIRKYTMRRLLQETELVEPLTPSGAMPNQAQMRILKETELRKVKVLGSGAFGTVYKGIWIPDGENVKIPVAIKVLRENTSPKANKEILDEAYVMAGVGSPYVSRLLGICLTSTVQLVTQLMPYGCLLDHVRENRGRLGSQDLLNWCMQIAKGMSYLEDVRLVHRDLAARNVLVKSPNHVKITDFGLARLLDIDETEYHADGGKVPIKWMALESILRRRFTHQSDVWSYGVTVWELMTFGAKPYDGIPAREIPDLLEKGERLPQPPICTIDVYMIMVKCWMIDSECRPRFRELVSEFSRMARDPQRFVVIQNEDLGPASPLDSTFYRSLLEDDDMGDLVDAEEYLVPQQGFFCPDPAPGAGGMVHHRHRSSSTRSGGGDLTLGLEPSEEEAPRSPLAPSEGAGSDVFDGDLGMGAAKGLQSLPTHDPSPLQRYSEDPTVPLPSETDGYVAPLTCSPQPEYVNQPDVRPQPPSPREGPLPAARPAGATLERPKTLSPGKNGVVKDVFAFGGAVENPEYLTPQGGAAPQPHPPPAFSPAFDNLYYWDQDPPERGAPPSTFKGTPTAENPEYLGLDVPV
Description: as §1, §2, §3, §4, §5

INS-R = target: T4, INS-R (Homo sapiens, UniProt P06213)
T4 construct: made in house; host or cells: Sf9 insect cells, baculovirus
T4 sequence (P06213 980-1382 limits assumed): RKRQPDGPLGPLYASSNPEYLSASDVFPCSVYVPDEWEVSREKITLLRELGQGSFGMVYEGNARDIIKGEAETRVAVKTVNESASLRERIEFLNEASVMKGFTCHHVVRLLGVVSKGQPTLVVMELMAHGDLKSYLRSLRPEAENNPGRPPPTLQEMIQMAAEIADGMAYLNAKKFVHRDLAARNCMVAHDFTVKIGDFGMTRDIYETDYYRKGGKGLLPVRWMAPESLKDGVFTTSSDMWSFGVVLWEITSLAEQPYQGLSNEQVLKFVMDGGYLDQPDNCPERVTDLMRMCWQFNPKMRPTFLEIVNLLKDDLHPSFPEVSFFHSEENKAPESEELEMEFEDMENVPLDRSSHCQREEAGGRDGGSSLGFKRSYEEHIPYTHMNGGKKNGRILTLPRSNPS
Description: as §1, §2, §3, §4, §5

SAK = target: T5, SAK (Homo sapiens, UniProt O00444)
T5 construct: made in house; host or cells: Sf9 insect cells, baculovirus
T5 sequence (O00444 1-970): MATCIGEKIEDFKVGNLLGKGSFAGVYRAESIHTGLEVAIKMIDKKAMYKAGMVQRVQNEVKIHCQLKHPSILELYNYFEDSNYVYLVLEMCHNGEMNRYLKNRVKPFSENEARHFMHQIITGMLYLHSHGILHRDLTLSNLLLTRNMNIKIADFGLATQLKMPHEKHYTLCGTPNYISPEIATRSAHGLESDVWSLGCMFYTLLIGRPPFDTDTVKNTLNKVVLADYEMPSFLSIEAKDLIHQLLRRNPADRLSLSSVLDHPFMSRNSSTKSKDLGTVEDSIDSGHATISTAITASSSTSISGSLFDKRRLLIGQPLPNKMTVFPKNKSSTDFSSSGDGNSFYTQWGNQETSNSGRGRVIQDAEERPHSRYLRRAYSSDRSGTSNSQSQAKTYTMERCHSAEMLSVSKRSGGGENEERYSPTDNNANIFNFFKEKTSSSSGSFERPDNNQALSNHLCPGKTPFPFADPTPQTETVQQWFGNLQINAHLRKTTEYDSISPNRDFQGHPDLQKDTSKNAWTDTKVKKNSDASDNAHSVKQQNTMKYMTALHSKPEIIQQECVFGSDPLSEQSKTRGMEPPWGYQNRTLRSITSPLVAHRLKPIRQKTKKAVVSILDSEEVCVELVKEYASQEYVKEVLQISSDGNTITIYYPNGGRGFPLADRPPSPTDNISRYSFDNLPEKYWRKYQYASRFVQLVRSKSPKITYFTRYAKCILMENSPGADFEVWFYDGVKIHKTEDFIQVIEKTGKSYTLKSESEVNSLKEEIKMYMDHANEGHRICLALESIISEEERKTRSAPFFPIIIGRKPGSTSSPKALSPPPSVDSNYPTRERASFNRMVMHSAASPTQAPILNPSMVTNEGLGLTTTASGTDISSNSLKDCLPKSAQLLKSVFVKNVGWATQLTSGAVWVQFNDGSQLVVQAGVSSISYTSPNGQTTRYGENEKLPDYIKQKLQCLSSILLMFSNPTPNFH
Description: as §1, §2, §3, §4, §5

SRC = target: T6, SRC (Homo sapiens, UniProt P12931)
T6 construct: made in house; host or cells: Sf9 insect cells, baculovirus
T6 sequence (P12931 whole entry): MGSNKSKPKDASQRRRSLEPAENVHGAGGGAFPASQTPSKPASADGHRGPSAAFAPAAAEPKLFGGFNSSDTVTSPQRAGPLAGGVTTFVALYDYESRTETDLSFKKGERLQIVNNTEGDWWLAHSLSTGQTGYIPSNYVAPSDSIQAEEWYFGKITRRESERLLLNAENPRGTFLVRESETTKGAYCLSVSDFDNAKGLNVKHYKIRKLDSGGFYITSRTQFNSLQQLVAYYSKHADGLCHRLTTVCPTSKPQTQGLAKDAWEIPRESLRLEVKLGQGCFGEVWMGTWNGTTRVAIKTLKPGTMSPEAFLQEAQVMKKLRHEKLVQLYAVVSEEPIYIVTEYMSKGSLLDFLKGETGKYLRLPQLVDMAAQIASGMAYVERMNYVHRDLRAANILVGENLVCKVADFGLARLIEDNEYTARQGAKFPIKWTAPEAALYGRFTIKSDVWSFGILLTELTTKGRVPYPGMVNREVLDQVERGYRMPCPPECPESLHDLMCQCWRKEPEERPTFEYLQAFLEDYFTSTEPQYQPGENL
Description: as §1, §2, §3, §4, §5

[1] = 1 μM ATP, read-out: IC50 values [μM] AKT1
[2] = 1 μM ATP, read-out: IC50 values [μM] CDK4/CycD1
[3] = 1 μM ATP, read-out: IC50 values [μM] ERBB2
[4] = 1 μM ATP, read-out: IC50 values [μM] INS-R
[5] = 1 μM ATP, read-out: IC50 values [μM] SAK
[6] = 1 μM ATP, read-out: IC50 values [μM] SRC

SMILES | IC50 (AKT1; [1]) [µM] | IC50 (CDK4/CycD1; [2]) [µM] | IC50 (ERBB2; [3]) [µM] | IC50 (INS-R; [4]) [µM] | IC50 (SAK; [5]) [µM] | IC50 (SRC; [6]) [µM] | IC50 (AKT1) [µM] | IC50 (CDK4/CycD1) [µM] | IC50 (ERBB2) [µM] | IC50 (INS-R) [µM] | IC50 (SAK) [µM] | IC50 (SRC) [µM]
O=c1ccc(=O)c2c1c1c(=O)c3ccccc3c1n2Cc1ccccc1 [Compound 6c, 5-Benzyl 5,6,9,10-tetrahydroindeno[1,2-b]indole-6,9,10-trione] | > 10 | 7.6 | 7.6 | 6.5 | 3.9 | 0.8 |  |  |  |  |  | 
CC(C)n1c2c(=O)ccc(=O)c2c2c(=O)c3ccccc3c21 [Compound 6b, 5-Isopropyl-5H-indeno[1,2-b]indole-6,9,10-trione] | 9.3 | > 10 | > 10 | 1.6 | 1.7 | 1.6 |  |  |  |  |  | 
CC(C)n1c2c(c3c1-c1ccccc1C3=O)C(=O)CCC2 [Compound 4b, 5-Isopropyl-5,6,7,8-tetrahydroindeno[1,2-b]indole-9,10-dione] |  |  |  |  |  |  | > 10 | > 10 | > 10 | > 10 | > 10 | > 10
